We go through 1 compound from patent publication US12447137B2, “Composition for prevention, amelioration, or treatment of cancer” (EWHA UNIVERSITY—INDUSTRY COLLABORATION FOUNDATION, priority 2019, dated 2025).

The test system of assay [1] is p-AMPK (Thr172). The experiment in a line: AMPK activation by p-AMPK (Thr172) Western blot in MDA-MB-231 cells. Type of assay: cell-based, human. Conditions: 24 hours. How it is done:
[3-1] The breast cancer cell line of Experimental Method 1 above was treated with the compound of Production Example 6 at a concentration of 0 to 30 μM, and then cultured for 24 hours. Thereafter, the cells were harvested and lysed in RIPA buffer, and the protein was electrophoresed by SDS-PAGE, and then the expression level of the protein was analyzed using antibodies specific for AMPK and phospho-AMPK (Thr172). GAPDH or β-actin was used as a loading control for protein quantification.
(§1) [3-2] The three breast cancer cell lines (4T1, BT549, and MDA-MB-231) of Experimental Method 1 were treated with each of the compound of Production Example 6 and 13 compounds, including the compounds of Production Examples 1 to 5 and 8 to 15 having a similar structure (YE-01, 02, 03, 04, 05, 08, 09, 10, 11, 12, 13, 14 and 15), at a concentration of 10 μM, and then cultured for 24 hours. In addition, each of two types of gastric cancer cell lines, brain cancer cell lines and pancreatic cancer cell lines was treated with the compound of Production Example 6 or the compound of Production Example 8 having a similar structure at a concentration of 10 μM and then cultured for 12 hours. Thereafter, the cells were harvested and lysed in RIPA buffer, and the protein was electrophoresed by SDS-PAGE, and then the expression level of the protein was analyzed using antibodies specific for AMPK and phospho-AMPK (Thr172). GAPDH or β-actin was used as a loading control for protein quantification.
For orientation: In western blotting, separated proteins are transferred to a membrane and probed.

Assay [2] deals with p-AMPK (Thr172). The experiment in a line: AMPK activation by p-AMPK (Thr172) Western blot in gastric cancer cell lines. It is filed as cell-based, human. Conditions: 10 μM, 12 hours, compared to untreated group. How it is done: as §1
Assay [3] has as its system p-AMPK (Thr172). The experiment in a line: AMPK activation by p-AMPK (Thr172) Western blot in brain cancer cell lines. It is filed as cell-based, human. Particulars: 10 μM, 12 hours, compared to untreated group. How it is done: as §1
Assay [4] deals with cleaved-PARP, Bcl-2 and Cyclin D1 proteins. The experiment in a line: Apoptosis marker Western blot in 4T1 cell line. It is filed as cell-based, mouse. Conditions: FIG. 5.
The test system is the same in assay [5]. The experiment in a line: Apoptosis marker Western blot in MDA-MB-231 cell line. Type of assay: cell-based, human. Particulars: FIG. 5.
In assay [6] the test system is 4T1 cell line. Kind of assay: Flow cytometry assay (Annexin V / PI). It is filed as cell-based, mouse. Conditions: 4T1, 0 to 30 μM, 24 hours; FIG. 6. The method, then:
The breast cancer cell line of Experimental Method 1 was treated with the compound of Production Example 6 at a concentration of 0 to 30 μM and cultured for 24 hours. Thereafter, the cultured cells were detached by trypsin, and then double-stained with Annexin V; recognizing apoptosis) and PI (propidium iodide; recognizing cell necrosis), and then the pattern and level of apoptosis were measured using flow cytometry.
For orientation: Flow cytometry measures light scatter and fluorescence of single cells or particles in a stream.

Assay [7] has as its system EMT protein markers α-SMA, Vimentin, ZEB-1 and Slug. The experiment in a line: EMT protein marker Western blot, TGF-β1-treated 4T1 cells. Type of assay: cell-based, mouse. Conditions: 4T1, with TGF-β1; FIG. 7A. The method, then: The culture medium of the breast cancer cell line of Experimental Method 1 was replaced with a serum-free medium. Then, the cells were treated with 2 ng/mL of TGF-β1 and the compound of Preparation Example 6 and cultured for 20 to 24 hours. Thereafter, as described in Experimental Method 3, the expression level of the protein was measured using an antibody specific for the EMT-related protein.

Assay [8] relates to 4T1-luc xenograft (flank, s.c.). Kind of assay: Tumor regression in xenograft animal model. Type of assay: in vivo, mouse. Particulars: 4 mg/kg tail vein (IV) once every 3 days, 6 times; compared to Vehicle; FIG. 8A, 8B. The text has this:
(§2) After 4-week-old athymic nude mice (female) were purchased, only healthy mice were selected while the mice were adapted to the environment of the animal breeding room for 7 days. For identification of each mouse, the ears were marked using an ear punch. In addition, the breeding box was identified by attaching a mouse identification card describing the test number, test substance name, test item, receipt date, test date, test content, and the person in charge of the test. The environment of the animal breeding room was maintained at a temperature of 22±3° C., a relative humidity of 50±20%, 10 to 15 ventilations/hour, a 12-hour light (8:30 to 20:30)/dark cycle, and an illuminance of 150 to 300 lux. In addition, the animals were fed feed and drinking water during the breeding period, and quarantined during the acclimatization and testing periods. […]
During a period ranging from the day the mouse breast cancer cell line 4T1-luc was injected to the end of the experiment (dissection date), the tumor volume was measured every day. […] In order to confirm the tumor regression effect, the volume of the tumor was measured before administration of the compound of Production Example 6, and at day 28 after the first administration of the compound of Production Example 6, the animals were euthanized, and the primary tumors were excised and their volumes were compared.

For assay [9], the system named is 4T1-luc orthotopic graft (fat pad, s.c.). The experiment in a line: Tumor (lung) metastasis in orthotopic animal model, IVIS luminescence. It is filed as in vivo, mouse. Particulars: 20 mg/kg intraperitoneal at 2-day intervals; compared to Vehicle; FIG. 9A, 9B.
From the text: as §2
During a period ranging from the day the mouse breast cancer cell line 4T1-luc cell line was injected to the end of the experiment (dissection date), lung metastasis of the cancer cell line was checked at intervals of 1 to 2 days. After the animal model was anesthetized by inhalation with 2.5% isoflurane, luminescence intensity was measured using an in-vivo imaging system (IVIS). […]

Regarding `COc1ccc(OC)c(/C=C/C(=O)c2ccc(NS(=O)(=O)c3ccc(Cl)cc3)cc2)c1` [Production Example 6, (E)-4-chloro-N-(4-(3-(2,5-dimethoxyphenyl)acryloyl)phenyl)benzenesulfonamide], in assay [1] (MDA-MB-231, 0 to 30 μM, FIG. 5), the phospho-AMPK protein result is “increased in a concentration-dependent manner”. Moreover, the p-AMPK level result in assay [1] (MDA-MB-231, 10 μM, FIG. 3B) is reported as “effectively increased”. For the same compound, in [2], the “expression of p-AMPK” value is “increased”. In addition, the “expression of p-AMPK” value in [3] was “increased”. In assay [4], the “level of Bcl-2 protein” value is “decreased”, the “level of Cyclin D1 protein” value is given as “decreased” and the “level of apoptosis marker cleaved-PARP protein” value is reported as “increased”. Besides, in assay [5], the “level of Bcl-2 protein” value is “decreased”, the “level of Cyclin D1 protein” value is given as “decreased” and the “level of apoptosis marker cleaved-PARP protein” value is listed as “increased”. The “cells stained with annexin V or PI” value in [6] is “increased in a concentration-dependent manner”. In [7], the Slug protein entry is listed as “decreased”, the Vimentin protein result is listed as “decreased”, the ZEB-1 protein result is recorded as “decreased” and the α-SMA protein entry is given as “decreased”. The “volume of the tumor” value in assay [8] is given as “decreased”. For the same compound, in assay [9], the “luminescence intensity in the lung (4T1-luc lung metastasis)” value was “significantly decreased”.
